Data taken from DBAASP.
Values after ≈ are worked out from the molar mass of the structure shown. Blank lines part the entries; values can stand above or below the compound they belong to.

Assays:
Experiment in all cases: ≥ marks a high value that may be exact or a test limit, other limits are often not marked, values filed in µg/mL are converted to µM
Escherichia coli JM109 = system: Escherichia coli JM109
Pseudomonas aeruginosa = system: Pseudomonas aeruginosa
[1] = system: Staphylococcus aureus ATCC 6538P
Staphylococcus aureus = system: Staphylococcus aureus
[2] = system: Bacillus subtilis ATCC 6633
[3] = system: Candida albicans ATCC 2002
[4] = system: Escherichia coli ATCC 25922
Shigella dysenteriae = system: Shigella dysenteriae
[5] = system: Staphylococcus aureus ATCC 2592
Bacillus subtilis = system: Bacillus subtilis
[6] = system: Pseudomonas aeruginosa ATCC 27853
[7] = system: Enterococcus faecalis ATCC 29212
[8] = system: Staphylococcus aureus NCTC 8325
[9] = system: Staphylococcus epidermidis RP62A
[10] = system: Enterococcus faecalis NCTC 12697
Bacillus subtilis 168 = system: Bacillus subtilis 168
[11] = system: Candida albicans F7-39/IDE99
Escherichia coli B = system: Escherichia coli B
[12] = system: Pseudomonas aeruginosa CMCCB 10104
Escherichia coli = system: Escherichia coli
[13] = system: Klebsiella pneumoniae ATCC 13883
[14] = system: Salmonella enterica subsp. enterica serovar Typhimurium ATCC 14028
[15] = system: Staphylococcus aureus ATCC 25923
[16] = system: Streptococcus pyogenes ATCC 19615

SMILES: CC[C@H](C)[C@H](NC(=O)[C@H](C)NC(=O)[C@H](CC(C)C)NC(=O)[C@H](CC(C)C)NC(=O)[C@H](Cc1c[nH]c2ccccc12)NC(=O)[C@H](C)N)C(=O)N[C@@H](CCCN=C(N)N)C(=O)N[C@@H](CCCN=C(N)N)C(=O)N[C@@H](CCCN=C(N)N)C(N)=O [AWLLAIRRR]
MIC (Escherichia coli JM109): 2.6 µM (≈ 3 µg/mL) | MIC (Pseudomonas aeruginosa): 3.46 µM (≈ 4 µg/mL) | MIC [1]: 1.73 µM (≈ 2 µg/mL) | MIC (Staphylococcus aureus): 17.3 µM (≈ 20 µg/mL)

SMILES: CC[C@H](C)[C@H](NC(=O)[C@@H]1CCCN1C(=O)[C@H](Cc1ccccc1)NC(=O)[C@@H](N)Cc1ccccc1)C(=O)N[C@H](C(=O)NCC(=O)N[C@@H](CCCCN)C(=O)N[C@@H](CCCN=C(N)N)C(=O)N[C@@H](CC(C)C)C(=O)N[C@@H](Cc1ccc(O)cc1)C(=O)NCC(=O)N[C@@H](CC(C)C)C(=O)N[C@@H](CC(C)C)C(N)=O)C(C)C [FFPIVGKRLYGLL]
MIC [2]: 6.16 µM (≈ 9.37 µg/mL) | MIC [3]: 24.6 µM (≈ 37.5 µg/mL) | MIC [4]: 46 µM (≈ 70 µg/mL) | MIC (Shigella dysenteriae): 12.3 µM (≈ 18.7 µg/mL) | MIC [5]: 3.09 µM (≈ 4.7 µg/mL)

SMILES: CC[C@H](C)[C@H](NC(=O)[C@H](C)NC(=O)CNC(=O)[C@@H](NC(=O)[C@@H](NC(=O)[C@@H](NC(=O)CNC(=O)[C@@H](NC(=O)[C@@H](NC(=O)[C@@H](NC(=O)[C@H](C)NC(=O)[C@H](Cc1ccccc1)NC(=O)[C@H](CC(C)C)NC(=O)[C@H](CCCN=C(N)N)NC(=O)[C@H](CCCN=C(N)N)NC(=O)[C@H](CC(C)C)NC(=O)CNC(=O)CNC(=O)[C@@H](NC(=O)[C@@H](N)Cc1ccccc1)[C@@H](C)CC)[C@@H](C)O)C(C)C)C(C)C)[C@@H](C)O)C(C)C)C(C)C)C(=O)N[C@@H](CC(N)=O)C(=O)N[C@@H](CCCCN)C(=O)N[C@@H](CC(C)C)C(=O)NCC(=O)NCC(=O)NCC(=O)O [FIGGLRRLFATVVGTVVGAINKLGGG]
MIC (Bacillus subtilis): ≥ 38.9 µM | MIC [3]: 2.45 µM (≈ 6.3 µg/mL) | MIC [4]: 4.86 µM (≈ 12.5 µg/mL) | MIC [6]: 8 µM (≈ 20.6 µg/mL) | MIC [5]: 4.86 µM (≈ 12.5 µg/mL)

SMILES: CC[C@H](C)[C@H](NC(=O)[C@@H](NC(=O)[C@@H]1CCCN1C(=O)[C@H](CC(C)C)NC(=O)[C@@H](N)Cc1ccccc1)[C@@H](C)CC)C(=O)NCC(=O)N[C@@H](CCC(N)=O)C(=O)N[C@@H](CC(C)C)C(=O)N[C@@H](CC(C)C)C(=O)N[C@@H](CO)C(=O)NCC(=O)N[C@@H](CC(C)C)C(=O)N[C@@H](CC(C)C)C(N)=O [FLPIIGQLLSGLL]
MIC [7]: > 80 µM | MIC [8]: ≥ 80 µM | MIC [9]: ≥ 80 µM

SMILES: CC(C)C[C@H](NC(=O)[C@H](C)NC(=O)[C@H](Cc1c[nH]c2ccccc12)NC(=O)[C@H](CCCCN)NC(=O)[C@@H]1CCCN1C(=O)[C@H](CC(C)C)NC(=O)[C@@H](N)Cc1ccccc1)C(=O)N[C@@H](CCCCN)C(=O)N[C@@H](Cc1c[nH]c2ccccc12)C(=O)N[C@@H](C)C(=O)N[C@@H](C)C(=O)N[C@@H](CCCCN)C(N)=O [FLPKWALKWAAK]
MIC [10]: ≥ 512 µM

SMILES: CC[C@H](C)[C@H](NC(=O)[C@H](CC(C)C)NC(=O)[C@H](Cc1cnc[nH]1)NC(=O)CNC(=O)[C@H](CC(C)C)NC(=O)[C@@H](NC(=O)[C@H](CCCCN)NC(=O)[C@H](CCCCN)NC(=O)[C@H](Cc1c[nH]c2ccccc12)NC(=O)[C@H](CCCCN)NC(=O)CN)[C@@H](C)CC)C(=O)N[C@@H](CCCN=C(N)N)C(N)=O [GKWKKILGHLIR]
MIC (Bacillus subtilis 168): 1.2 µM (≈ 1.74 µg/mL) | MIC [11]: 5.3 µM (≈ 7.67 µg/mL) | MIC (Escherichia coli B): 2.7 µM (≈ 3.91 µg/mL) | MIC (Pseudomonas aeruginosa): 30 µM (≈ 43.4 µg/mL) | MIC (Staphylococcus aureus): 28.3 µM (≈ 41 µg/mL)

SMILES: CC[C@H](C)[C@H](NC(=O)[C@H](Cc1cnc[nH]1)NC(=O)[C@H](CCCCN)NC(=O)[C@H](CC(C)C)NC(=O)[C@H](CC(C)C)NC(=O)[C@H](CO)NC(=O)[C@H](CCSC)NC(=O)[C@H](Cc1c[nH]c2ccccc12)NC(=O)[C@H](CCCCN)NC(=O)CN)C(=O)N[C@@H](CC(C)C)C(=O)N[C@@H](CCCCN)C(N)=O [GKWMSLLKHILK]
MIC (Bacillus subtilis 168): 1 µM (≈ 1.45 µg/mL) | MIC [11]: 6.6 µM (≈ 9.59 µg/mL) | MIC (Escherichia coli B): 2.5 µM (≈ 3.63 µg/mL) | MIC (Pseudomonas aeruginosa): 42.1 µM (≈ 61.2 µg/mL) | MIC (Staphylococcus aureus): 8.1 µM (≈ 11.8 µg/mL)

SMILES: CC[C@H](C)[C@H](N)C(=O)N[C@@H](CC(C)C)C(=O)NCC(=O)N1CCC[C@H]1C(=O)N[C@H](C(=O)N[C@H](C(=O)N[C@@H](CO)C(=O)N[C@H](C(=O)N[C@H](C(=O)NCC(=O)NCC(=O)N[C@H](C(=O)N[C@@H](CC(C)C)C(=O)NCC(=O)NCC(=O)N[C@@H](CC(C)C)C(=O)N[C@@H](CC(C)C)C(=O)N[C@@H](CCCCN)C(=O)N[C@@H](CC(N)=O)C(=O)N[C@@H](CC(C)C)C(N)=O)C(C)C)[C@@H](C)CC)[C@@H](C)O)[C@@H](C)CC)C(C)C [ILGPVISTIGGVLGGLLKNL]
MIC [3]: 2.33 µM (≈ 4.5 µg/mL) | MIC [4]: 4.65 µM (≈ 9 µg/mL) | MIC [12]: 4.65 µM (≈ 9 µg/mL) | MIC [5]: 2.33 µM (≈ 4.5 µg/mL)

SMILES: CC(C)C[C@H](NC(=O)[C@H](CCCCN)NC(=O)[C@H](CCCN=C(N)N)NC(=O)[C@H](Cc1c[nH]c2ccccc12)NC(=O)[C@H](Cc1c[nH]c2ccccc12)NC(=O)[C@H](CCCCN)NC(=O)[C@H](CCCCN)NC(=O)[C@H](Cc1c[nH]c2ccccc12)NC(=O)[C@H](CCCN=C(N)N)NC(=O)[C@H](CCCCN)NC(=O)[C@@H](N)C(C)C)C(=O)N[C@@H](CCCCN)C(=O)N[C@@H](CCCCN)C(=O)N[C@@H](CO)C(=O)N[C@H](C(N)=O)C(C)C [VKRWKKWWRKLKKSV]
MIC (Bacillus subtilis): ≥ 48.6 µM | MIC [3]: 4.56 µM (≈ 9.38 µg/mL) | MIC [4]: 9.12 µM (≈ 18.7 µg/mL) | MIC [5]: ≥ 48.6 µM

Next, values leading:

MIC (Bacillus subtilis 168): 1.3 µM (≈ 1.93 µg/mL) | MIC [11]: 4.3 µM (≈ 6.4 µg/mL) | MIC (Escherichia coli B): 2.3 µM (≈ 3.42 µg/mL) | MIC (Pseudomonas aeruginosa): 11.3 µM (≈ 16.8 µg/mL) | MIC (Staphylococcus aureus): 5 µM (≈ 7.44 µg/mL)
SMILES: CSCC[C@H](NC(=O)[C@H](CCCCN)NC(=O)[C@H](Cc1ccccc1)NC(=O)CN)C(=O)N[C@@H](C)C(=O)N[C@@H](CC(C)C)C(=O)N[C@@H](CCCCN)C(=O)N[C@@H](CC(C)C)C(=O)N[C@@H](CC(C)C)C(=O)N[C@@H](CCCCN)C(=O)N[C@@H](CCCCN)C(=O)N[C@H](C(=O)N[C@@H](CC(C)C)C(N)=O)C(C)C [GFKMALKLLKKVL]

MIC [2]: 1.05 µM (≈ 2 µg/mL) | MIC (Escherichia coli JM109): 4.19 µM (≈ 8 µg/mL)
SMILES: CC[C@H](C)[C@H](N)C(=O)N[C@@H](CC(N)=O)C(=O)N[C@@H](Cc1c[nH]c2ccccc12)C(=O)N[C@@H](CCCCN)C(=O)N[C@@H](CCCCN)C(=O)N[C@H](C(=O)N[C@@H](C)C(=O)N[C@@H](CCC(=O)O)C(=O)N[C@H](C(=O)NCC(=O)N[C@@H](CCCCN)C(=O)N[C@@H](CCC(N)=O)C(=O)N[C@H](C(=O)N[C@@H](CC(C)C)C(=O)N[C@@H](CO)C(=O)N[C@@H](C)C(=O)N[C@@H](CC(C)C)C(N)=O)C(C)C)[C@@H](C)CC)[C@@H](C)CC [INWKKIAEIGKQVLSAL]

MIC (Bacillus subtilis): ≥ 100 µM | MIC [7]: > 200 µM | MIC (Escherichia coli): 100 µM (≈ 222 µg/mL) | MIC [13]: ≥ 200 µM | MIC [6]: 100 µM (≈ 222 µg/mL) | MIC [14]: > 200 µM | MIC [15]: 100 µM (≈ 222 µg/mL) | MIC [16]: ≥ 200 µM
SMILES: CC[C@H](C)[C@H](NC(=O)[C@@H]1CCCN1C(=O)[C@H](CC(C)C)NC(=O)[C@@H](N)CC(C)C)C(=O)N[C@H](C(=O)NCC(=O)N[C@@H](CC(N)=O)C(=O)N[C@@H](CC(C)C)C(=O)N[C@@H](CC(C)C)C(=O)N[C@@H](CCCCN)C(=O)N[C@@H](CO)C(=O)N[C@@H](CC(C)C)C(=O)N[C@@H](CC(C)C)C(=O)NCC(=O)N[C@@H](C)C(=O)N[C@@H](CCCCN)C(=O)N[C@@H](CCCN=C(N)N)C(=O)N[C@@H](CCCCN)C(=O)N[C@@H](CCCN=C(N)N)C(=O)N[C@@H](C)C(=O)NCC(N)=O)C(C)C [LLPIVGNLLKSLLGAKRKRAG]

MIC (Bacillus subtilis): ≥ 100 µM | MIC [7]: > 100 µM | MIC (Escherichia coli): > 100 µM | MIC [13]: ≥ 100 µM | MIC [6]: > 100 µM | MIC [14]: > 100 µM | MIC [15]: > 100 µM | MIC [16]: ≥ 100 µM
SMILES: CC(C)C[C@H](NC(=O)[C@H](Cc1c[nH]c2ccccc12)NC(=O)[C@H](CCC(N)=O)NC(=O)[C@@H](N)C(C)C)C(=O)N[C@@H](CCC(=O)O)C(=O)N[C@@H](CCC(N)=O)C(=O)N[C@@H](CCC(N)=O)C(=O)N[C@H](C(=O)N[C@@H](C)C(=O)N[C@@H](CCCCN)C(=O)N[C@@H](CCCN=C(N)N)C(=O)N[C@@H](CCCN=C(N)N)C(=O)N[C@H](C(=O)N[C@@H](CCCCN)C(=O)N[C@@H](CCCN=C(N)N)C(=O)O)[C@@H](C)O)C(C)C [VQWLEQQVAKRRTKR]
